# In patent US20260191873A1, “FUSED AMINO PYRIMIDINE COMPOUNDS FOR TREATMENT OF 22q11.2 DELETION/DUPLICATION SYNDROMES” (Ovid Therapeutics Inc., priority 2024, published 2026):
# Legend:
# [1] = system: panel of 144 protein kinases; experiment: Protein kinase panel (SelectScreen; Thermofisher); type: biochemical; conditions: 144 protein kinases incl. PKC isoforms, OSR1, SPAK, WNK
# Protocol: Aliquots of HEK-293 cells expressing KCC2 were exposed to 30 μM SSA, heated from 37-55° C. The remaining level of soluble native KCC2 at each temperature was measured by immunoblotting and normalized to the level seen at 37° C. which was given a value of 1. […] This panel included protein kinase C isoforms, OSR1, SPAK (STK39) and with-no-lysine kinases (WNK), all of which phosphorylate KCC2 on multiple residues to indirectly modify its activity (Kahle et al., 2013, supra; Smalley et al., 2020, supra).
# KA induced SE [2] = experiment: Kainic acid (KA) induced SE, EEG, pretreatment; type: in vivo, mice; conditions: Compound A pretreated, 2 h after KA, pre DZ; vehicle 4.2±2.4×10^−6
# Text: This model was chosen due to the similarities with patients undergoing SE, as KA-induced seizures become refractory to benzodiazepines (BDZs) within minutes (Betjemann and Lowenstein, Lancet Neurol 14, 615-624 (2015); Crawshaw and Cock, (2020a) [Seizure: Eur. J. Epilep. 75 (2020) 145-152] Seizure 80, 282; Lee et al., 2022, supra; Reddy and Kuruba, Int J Mol Sci 14, 18284-18318 (2013)).
# EEG recordings and analysis. WT C57Bl/6J adult male mice (12 weeks) were anesthetized with isofluorane and implanted with EEG/EMG electrodes and allowed to recover for 7 days prior to experimentation. […] 2 h following KA administration mice were injected with a saturating concentration of diazepam (DZ) 10 mg/kg (IP) and recordings were extended for a further 60 min. […] LabChart 8 software was used for data analysis. […]
# To provide quantitative insights on the effects of KA, raw EEG recordings were subject to Fast-Fourier transformation (8K FFT size, Hann (cosine-bell), 87.50% window overlap) for frequencies between 0-100 Hz 2 h after KA injection (Lee et al., 2022, supra). […]
# KA induced SE [3] = experiment: KA induced ongoing SE, EEG, treatment 2 h after KA; type: in vivo, mice
# Protocol: EEG recordings and analysis. WT C57Bl/6J adult male mice (12 weeks) were anesthetized with isofluorane and implanted with EEG/EMG electrodes and allowed to recover for 7 days prior to experimentation. […] 2 h following KA administration mice were injected with a saturating concentration of diazepam (DZ) 10 mg/kg (IP) and recordings were extended for a further 60 min. […] LabChart 8 software was used for data analysis. Epileptiform activity was identified by changes in the amplitude of electrographic activity characterized by consistent changes in the power of the Fast Fourier transform (FFT) of the EEG and abnormal activity characterized by periods of rhythmic spiking lasting longer than 30 s (Moore et al., 2017, supra; Silayeva et al., 2015, supra; Sivakumaran et al., J. Neurosci. 35, 8291-8296 (2015)).
# To evaluate the potential of KCC2 activators to terminate ongoing SE, the KA model described above was employed. Mice were injected with KA (20 mg/Kg; IP). […] Spectral data were then subjected to FFT and the total EEG power between 1-100 Hz of the 2 h following KA treatment (pre-drug) and 30 min following their injection (post-drug) were compared (FIG. 6B). In mice treated with DZ alone variable effects were observed, from large increases to modest reductions in EEG power, but these effects were not significant (FIG. 6C; pre=1.1±0.2×10^−6, post=4.4±7.4×10^−7 μV^2, p=0.214, n=13-14 mice). […]
# KA induced SE [4] = experiment: KA induced SE, EEG, direct injection into the hippocampus; type: in vivo, mice; conditions: injected into the hippocampus, DZ 2 h after KA
# Protocol: 30 or 60 min later mice were injected with KA (20 mg/kg) and 2 h later with DZ as detailed above.
# KCC2 = biological target: T1, KCC2 (Homo sapiens, UniProt Q9H2X9); experiment: FLIPR Tl+ flux assay in HEK-293 cells expressing KCC2; type: cell-based; conditions: saturating concentration of 3 μM, 1% BCD vehicle
# T1 construct: expressed in transfected cells; host or cells: HEK-293 (ATCC CRL-1573)
# T1 sequence (Q9H2X9 1-1116 isoform Q9H2X9-2): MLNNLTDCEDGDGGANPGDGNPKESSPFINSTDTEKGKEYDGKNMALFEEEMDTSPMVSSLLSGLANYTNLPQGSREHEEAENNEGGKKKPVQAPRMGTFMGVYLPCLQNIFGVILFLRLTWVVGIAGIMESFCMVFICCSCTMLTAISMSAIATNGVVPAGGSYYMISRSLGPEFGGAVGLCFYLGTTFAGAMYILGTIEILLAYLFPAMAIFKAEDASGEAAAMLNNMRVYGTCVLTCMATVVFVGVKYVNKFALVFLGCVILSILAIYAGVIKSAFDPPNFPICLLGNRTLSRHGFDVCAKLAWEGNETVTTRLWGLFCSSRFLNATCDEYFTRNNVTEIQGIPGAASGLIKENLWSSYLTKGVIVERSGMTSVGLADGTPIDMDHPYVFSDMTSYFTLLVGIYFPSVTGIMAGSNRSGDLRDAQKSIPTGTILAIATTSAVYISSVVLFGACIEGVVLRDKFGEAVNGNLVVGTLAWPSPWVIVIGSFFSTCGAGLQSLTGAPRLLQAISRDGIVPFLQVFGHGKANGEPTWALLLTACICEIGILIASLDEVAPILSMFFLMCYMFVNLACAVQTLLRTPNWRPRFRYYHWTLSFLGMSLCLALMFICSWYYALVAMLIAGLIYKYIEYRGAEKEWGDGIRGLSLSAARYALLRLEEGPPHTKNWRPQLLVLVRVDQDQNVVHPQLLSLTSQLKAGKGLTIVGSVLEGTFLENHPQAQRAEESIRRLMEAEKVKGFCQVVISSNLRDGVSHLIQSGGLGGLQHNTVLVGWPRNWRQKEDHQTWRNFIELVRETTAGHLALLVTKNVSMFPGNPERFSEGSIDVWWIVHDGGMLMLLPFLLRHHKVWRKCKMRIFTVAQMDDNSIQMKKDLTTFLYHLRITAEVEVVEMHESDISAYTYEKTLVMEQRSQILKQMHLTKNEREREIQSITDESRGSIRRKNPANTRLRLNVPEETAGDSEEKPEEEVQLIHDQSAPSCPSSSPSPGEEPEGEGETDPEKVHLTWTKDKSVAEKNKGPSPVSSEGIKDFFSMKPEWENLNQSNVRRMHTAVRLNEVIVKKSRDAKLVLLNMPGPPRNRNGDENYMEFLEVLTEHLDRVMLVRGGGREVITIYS
# Protocol: A multi-tiered high-throughput screening assay was used, leveraging a proprietary library of 1.3 million small molecule compounds from AstraZeneca (Cambridge, UK) to identify chemical entities capable of activating KCC2. A single point concentration of 30 μM was used to identify potassium flux using an established thallium (TI+) influx FLIPR assay as the primary read out in HEK-293 cells overexpressing KCC2 (Cardarelli et al., Nat. Med. 23, 1394-1396 (2017); Conway et al., J Biol Chem 292, 21253-21263 (2017); Lee et al., 2022, supra).
# Cell Culture and biotinylation. […]
# FLIPR TI Flux assay. HEK-293 cells were washed with HBSS, and then incubated with loading buffer containing TI sensitive fluorescent dye (https://www.moleculardevices.com), 20 μM bumetanide 20 μM ouabain and 2.5 mM probenecid for 1 h at room temperature (RT) under control conditions or with drugs in the dark using a FlexStation 3 microplate reader (Molecular Devices) and imaged […] for 30 min. Stimulus buffer was added containing 5 mM K^+/0.5 mM Tl^+ and cells were imaged every 1.5 over a 190 second time course The initial rate Tl^+ uptake (Relative Fluorescence Units (RFU) per second) was determined following addition of the stimulus buffer as outlined previously (Conway et al., 2017, supra) (Lee et al., 2022, supra). […]
Compound,activity of kinase panel [1],total EEG power (KA induced SE [2]),DZ insensitivity (KA induced SE [3]; Compound A 50 mg/kg with DZ 10 mg/kg IP),effect of DZ on seizure parameters in pretreated mice (KA induced SE [4]),maximum potentiation (KCC2) [%],mice insensitive to the effects on EEG power (KA induced SE [3]; DZ 10 mg/kg IP 2 h after KA) [%]
"C[C@@H]1CN(c2nc3c(c(Nc4ccc(C5CCCCC5)cc4)n2)COC3)CCO1 [Compound A, (R)—N-(4-cyclohexylphenyl)-2-(2-methylmorpholino)-5,7-dihydrofuro[3,4-d]pyrimidin-4-amine]",did not modify the activity,6.9±3.2×10^−7 μV^2,abolished,significantly reduced,90,
"CN1C(=O)CN=C(c2ccccc2)c2cc(Cl)ccc21 [DZ, diazepam, reference compound]",,,,,,62
